From US20160287536A1, “Composition” (THE UNIVERSITY OF NOTTINGHAM, priority 2013, published 2016)
Values joined by “and” are separate entries in the source; they are usually repeats but may differ in a detail not shown here. Equal values may be shown once. Read-outs that look alike come from different tables or passages of the source.

Key:
Assay type in all cases: cell-based
[1] = test system: sheep isolated rectal artery; assay: Wire myography, sheep isolated rectal artery (SRA); settings: for effect on the noradrenaline CRC: prazosin 0.4-10 nM, RX811059 30 nM; for spontaneous contraction: sheep isolated rectal vessels, 10 μM
Method: (§1) Sheep mesenteric tissue, from the distal sigmoid colon to the anus, was obtained from a local abattoir. The sheep tissue was delivered in a dry bag and stored at 4° C. until dissected. The bundle of sheep rectal vessels was dissected from its mesentery within four hours of arrival from the abattoir. The vascular bundle was then kept in the pre-oxygenated Krebs-Henseleit buffer solution at 4° C. until used (on the same day as a preferential method or on the following day after storage overnight). No experiments were conducted on tissue stored for more than 24 hours after dissection. The Krebs solution consisted of 118.4 mM NaCl, 4.7 mM KCl, 1.2 mM MgSO4, 1.2 mM KH2PO4, 1.25 mM CaCl2, 24.9 mM NaHCO3, and 11.1 mM glucose.
(§2) Before setting a wire myography experiment, the remaining loose connective tissue was meticulously removed from the rectal vessels. The internal diameter of sheep isolated rectal artery and vein was 450-650 μm and 500-1000 μm, respectively. Each 5-mm ring segment of the ‘clean’ vessels was then suspended between two 200-μm wire supports in an organ bath containing 20 ml Krebs-Henseleit buffer solution. The upper supporting wire was attached to an isometric force transducer, while the lower wire was fixed steadily to a clamped glass rod. The bath solution was maintained at 37° C., and continuously gassed with 95% O2 and 5% CO2. Isometric tension was continuously recorded using a PowerLab 4/25 via QUAD Bridge amplifier (ADInstruments, Inc, Australia).
(§3) After a 10-minute equilibration period, an initial tension of 8 gram weight (g wt) was gradually applied for an arterial segment and left to relax for 30 minutes. The final tension of SRA varied between 1.0 g wt and 2.8 g wt. For a venous segment, an initial tension of 1 g wt was applied and, 10 minutes later, the resting tension was finally re-adjusted to reach a tension of 0.5 g wt. Then the vein was left to relax for further 20 minutes. The final tension of SRV ranged from 0.08 to 0.25 g wt. Once the vascular segments were fully settled, the tissues were tested for contractile activity with 60 mM KCl on three occasions. The vascular contraction was allowed to reach maximum, which generally took about 1-4 minutes. Each KCl challenge was followed by two washouts of 37° C. Krebs solution and the tissues were allowed to rest for 20 minutes between the challenges. The maximum contraction (tension) produced by the third administration of 60 mM KCl was used as a reference contraction to which subsequent responses were compared. After the final (3rd) KCl challenge, the tissues were washed and left for 60 minutes before α-adrenoceptor agonist was administrated. To construct an agonist concentration-response curves (CRC), 0.3-0.4 log 10 increments of agonist solution was added e.g. at the agonist concentration of 100 nM, 200 nM, 500 nM, 1 μM, 2 μM, 5 μM, and so on. Each response was allowed to reach equilibrium or plateau before the next dose of agonist was added. The maximal response to the agonist was considered when no further increase in response occurred upon the addition of two or more consecutive doses of agonist.
(§4) In the case of the noradrenaline study, 10 μM cocaine was added into the organ bath 40 minutes prior to the administration of noradrenaline for inhibiting the uptake of noradrenaline by neural tissue within the vascular wall (re-uptake 1) (Westfall & Westfall, 2006 In Goodman & Gilman's the Pharmacological Basis of Therapeutics. eds Brunton, L. L., Lazo, J. S. & Paker, K. L. pp. 137-181. New York: McGraw Hill). Regarding KCl-induced vasoconstriction, the CRC was generated by the contractile response to 6 mM increments of KCl solution, starting from 0 mM to 60 mM.
(§5) Consecutive CRCs were generated to each agonist, separated by 60 minutes, and if there was no difference in the maximum response (Emax) and pEC50 (defined as the negative logarithm of the concentration required to produce 50% of the maximum response) then a paired CRC protocol was used throughout. […]

[2] = test system: human isolated mesenteric vein; assay: Wire myography, human isolated mesenteric (colonic/rectal) vein (HMV); settings: for effect on potency of noradrenaline: 10 nM prazosin, 30 nM RX811059; for EC50: Homo sapiens
Source text: (§6) After obtaining approval from the local research ethics committee (Reference number: 05/Q2403/171) and having written consent from the patient, human mesenteric (colonic or rectal) vessels were collected from patients who underwent colectomy and/or proctectomy at the Division of Gastrointestinal Surgery, Queen's Medical Centre, University of Nottingham, UK, between August 2009 and March 2010. Patients with a history of previous abdominal/pelvic radiotherapy, and patients with endocrine tumours or concomitant intraabdominal infection were excluded from this study. In an operating room, the mesentery containing the required segment of blood vessels was dissected from the whole surgical specimen immediately after it was removed from a patient. The tissue was then kept in a 100-ml pot containing pre-oxygenated Krebs-Henseleit buffer solution maintained at 4° C. until used. No experiments were conducted on tissue stored for more than 12 hours after dissection. The Krebs solution consisted of 118.4 mM NaCl, 4.7 mM KCl, 1.2 mM MgSO4, 1.2 mM KH2PO4, 1.25 mM CaCl2, 24.9 mM NaHCO3, and 11.1 mM glucose.
Before setting a wire myography experiment, human mesenteric (colonic/rectal) vessels were meticulously dissected from the surrounding mesenteric fatty tissue. The ‘clean’ vessel was then divided into 5-mm ring segments. Generally, the internal diameter of vessels ranged between 400-1000 μm for human mesenteric artery (HMA) and 500-1200 μm for human mesenteric vein (HMV). Each 5-mm ring segment was suspended between two 200-μm wire supports in an organ bath containing 20 ml Krebs-Henseleit buffer solution. The contractile study of human mesenteric vessels was then set in the similar manner of the previous study on sheep isolated rectal vessels.
After a 20-minute equilibration period, an initial resting tension of 8 and 1 gram weight (g wt) was gradually applied to arterial and venous ring segments, respectively, and left to relax for 30 minutes. The final resting tension varied between 1.8 g wt and 3.2 g wt for HMA, and between 0.07 g wt and 0.35 g wt for HMV. Once the vascular segments were fully settled, they were tested for contractile activity with 60 mM KCl three occasions, and an agonist concentration-response curves (CRC) was then reconstructed after the vessels were left to equilibrate for 60 minutes as previously described for sheep rectal vessels. […] In the case of noradrenaline study, 10 μM cocaine was added into the organ bath 40 minutes prior to the administration of noradrenaline for inhibiting the uptake of noradrenaline by neural tissue within the vascular wall (re-uptake 1) (Westfall & Westfall, 2006 In Goodman & Gilman's the Pharmacological Basis of Therapeutics. eds Brunton, L. L., Lazo, J. S. & Paker, K. L. pp. 137-181. New York: McGraw Hill).
Although it appeared that the CRCs of several vasoconstrictors were reproducible (no significant change in maximum response and agonist potency) in human mesenteric vessels, a single CRC, paired segment approach was adopted throughout the study of human blood vessels. This was due to a desire to limit the time of tissue storage and the ease of tissue preparation. The single CRC, paired segment approach involves the generation of only one agonist CRC per tissue. The maximum response (Emax) and pEC50 (defined as the negative logarithm of the concentration required to produce 50% of the maximum response) of each vascular segment were compared to those of other vascular segments (adjacent segments from the same patient, or other segments from different patients).
If the vessel had spontaneous and periodic contraction after the administration of S(−)-BayK8644—which occurred in 70% of HMA and 80% of HMV, the effect of agonist would be considered when there was an increase in the frequency of contraction as well as a rise in the baseline of vascular tone.
The selective α1-adrenoceptor antagonist prazosin and selective α2-adrenoceptor antagonist RX811059 were used in this study. […]

[3] = test system: sheep isolated rectal vein; assay: Wire myography, sheep isolated rectal vein (SRV); settings: for rightward shift of the CRC for noradrenaline: prazosin 10 nM, RX811059 30 nM
Method: as §1, §2, §3, §4, §5

[4] = test system: human isolated mesenteric artery; assay: Wire myography, human isolated mesenteric (colonic/rectal) artery (HMA)
Source text: as §6
Before setting a wire myography experiment, human mesenteric (colonic/rectal) vessels were meticulously dissected from the surrounding mesenteric fatty tissue. The ‘clean’ vessel was then divided into 5-mm ring segments. […]

[5] = Ovis aries, SRV, 10 nM prazosin / 30 nM RX811059 against noradrenaline
[6] = with 10 nM prazosin and 30 nM RX811059
[7] = Ovis aries, SRV, agonist alone (control)

CCOC1(C2=NCCN2)COc2ccccc2O1 (stereo not drawn) [RX811059, 2-(2-ethoxy-1,4-benzodioxan-2-yl)-2-imidazoline]
effect on the noradrenaline CRC ([1]; SRA): no change | effect on potency of noradrenaline [2]: significantly reduced the potency of noradrenaline | parallel rightward shift of CRC to guanfacine ([2]; 30 nM): 2 fold | Kb [3, 5]: 0.0138 µM | pKB ([3]; SRV, 10 nM prazosin / 30 nM RX811059 against noradrenaline): ~7.9 | further rightward shift of the CRC for noradrenaline ([3]; SRV, 30 nM RX811059 added to 10 nM prazosin): 1.6 fold | rightward shift of the CRC for noradrenaline ([3]; SRV): 3 fold

[Cl-].[K+] [KCl]
contractile response ([1]; SRA): sustained concentration-dependent contraction | mean contraction to 60 mM KCl ([1]; SRA, n=119): 3.14±0.09 g wt | contractile response ([3]; SRV): concentration-dependent contractions | mean contraction to 60 mM KCl ([3]; SRV, n=128): 1.18±0.05 g wt

O=c1c(O)c(-c2cc(O)c(O)c(O)c2)oc2cc(O)cc(O)c12 [myricetin, 3,3′,4′,5,5′,7-hesahydroxyflavone]
spontaneous contraction [1]: no spontaneous contraction

COc1ccc(OC)c(C(O)C(C)N)c1 [L-erythro methoxamine]
contractile response ([1]; SRA): concentration-dependent contractions | maximum response as fraction of that to noradrenaline ([1]; SRA and SRV): one-third | arterioselectivity ([1]; sheep rectal vessels, artery vs vein): 3 fold | contractile response ([3]; SRV): concentration-dependent contractions

NCCc1c[nH]c2ccc(O)cc12 [5-HT, 5-hydroxytryptamine]
contractile response ([1]; SRA): concentration-dependent contractions | contractile response ([3]; SRV): concentration-dependent contractions

COC(=O)C1=C(C)NC(C)=C([N+](=O)[O-])[C@H]1c1ccccc1C(F)(F)F [S(−)-BayK8644, (4S)-1,4-dihydro-2,6-dimethyl-5-nitro-4-[2-(trifluoromethyl)-phenyl]-3-pyridine carboxylic acid methyl ester]
vessels with spontaneous phasic contraction ([4]; 1 μM): 70% and 71% | effect on 5-HT-induced contraction ([1]; SRA and SRV, 1 μM): no effect | effect on potency of KCl ([1]; SRA, 1 μM): significantly increased the potency | observations with spontaneous contraction ([1]; SRA, 1 μM): 6% | vessels with spontaneous phasic contraction ([2]; 1 μM): 80% and 83% | effect on potency of noradrenaline ([3]; SRV, 1 μM): significantly increased the potency

N=C(N)NC(=O)Cc1c(Cl)cccc1Cl [guanfacine]
EC50 ([1]; Ovis aries, SRA, agonist alone): 0.794 µM | Emax ([1]; Ovis aries, SRA, read-out: maximum response relative to maximum response to noradrenaline): ~20% | contractile response ([1]; SRA): concentration-dependent contractions | EC50 ([2]; control): 2.24 µM | EC50 ([2]; with 10 nM prazosin): 2.45 µM | EC50 [2, 6]: 6.46 µM | EC50 ([2]; with 30 nM RX811059): 5.25 µM | Emax ([2]; control): 31.4±4.1 percentage of the contraction | Emax ([2]; with 10 nM prazosin): 18.4±4.1 percentage of the contraction | Emax [2, 6]: 20.3±8.5 percentage of the contraction | Emax ([2]; with 30 nM RX811059): 33.0±4.1 percentage of the contraction | EC50 [3, 7]: 0.398 µM | EC50 ([3]; Ovis aries, SRV, in the presence of 10 nM prazosin and 30 nM RX811059): 0.912 µM | EC50 ([3]; Ovis aries, SRV, in the presence of 1 μM S(−)-BayK8644): 0.229 µM | Emax ([3]; Ovis aries, SRV, read-out: maximum response relative to maximum response to noradrenaline): 45% | contractile response ([3]; SRV): concentration-dependent contractions | Emax ([3]; SRV, agonist alone (control)): 54.7±8.1 percentage of the contraction and 37.0±6.6 percentage of the contraction | pEC50 ([3]; SRV, agonist alone (control)): 6.58±0.07 and 6.48±0.11 | Emax ([3]; SRV, in the presence of 10 nM prazosin and 30 nM RX811059): 31.3±4.2 percentage of the contraction | Emax ([3]; SRV, in the presence of 1 μM S(−)-BayK8644): 72.8±9.0 percentage of the contraction

COc1cc2nc(N3CCN(C(=O)c4ccco4)CC3)nc(N)c2cc1OC [prazosin]
Kb ([4]; Homo sapiens, noradrenaline-induced contractions): 0.000316 µM | Kb ([1]; Ovis aries, SRA and SRV, contraction to noradrenaline (summary)): 0.000158 to 0.000398 µM | Kb ([1]; Ovis aries, SRA, 2 nM prazosin against noradrenaline-induced contraction): 0.000398 µM | effect on the noradrenaline CRC ([1]; SRA): concentration-dependent, parallel rightward shift | effect on potency of noradrenaline [2]: significantly reduced the potency of noradrenaline | Kb [3, 5]: 0.00017 µM | rightward shift of the CRC for noradrenaline ([3]; SRV): 70 fold

COc1ccc(-c2cc(=O)c3c(O)cc(O[C@@H]4O[C@H](CO[C@@H]5O[C@@H](C)[C@H](O)[C@@H](O)[C@H]5O)[C@@H](O)[C@H](O)[C@H]4O)cc3o2)cc1O [diosmin, 3′,5,7-trihydroxy-4′-methoxyflavone 7-rutinoside]
spontaneous contraction [1]: no spontaneous contraction

NC[C@H](O)c1ccc(O)c(O)c1 [noradrenaline]
contractile response ([1]; SRA): concentration-dependent contractions | EC50 [3, 7]: 0.389 µM | EC50 ([3]; Ovis aries, SRV, in the presence of 30 nM RX811059): 1.26 µM | contractile response ([3]; SRV): concentration-dependent contractions | venoselectivity ([3]; sheep rectal vessels, vein vs artery): 4 fold
